# Patent publication US20100279997A1, “ANALGESIC THAT BINDS FILAMIN A” (priority 2009, published 2010)
# Biological target: T1, μ opiate receptor (MOR) (Rattus norvegicus, UniProt P33535)
# T1 construct: from tissue; host or cells: striatal tissue (membrane preparation)
# Assay: MOR agonist activity, [35S]GTPγS binding assay using striatal membranes
# Assay type: biochemical
# Details: for [35S]GTPγS binding to Gαo, FLNA-binding compound as agonist 0.1 μM: 0.1 μM compound; for [35S]GTPγS binding to Gαo, FLNA-binding compound as agonist 0.1 μM / [35S]GTPγS binding to Gαo, FLNA-binding compound as agonist 1 μM: striatal membranes; for [35S]GTPγS binding to Gαo, FLNA-binding compound as agonist 1 μM + BFNA: 1 μM compound + 1 μM β-funaltrexamine; for [35S]GTPγS binding to Gαo, FLNA-binding compound as agonist 1 μM: 1 μM compound
# Protocol: To assess the μ opiate receptor (MOR) agonist activity of positive compounds from the FLNA screening, compounds were tested in a [^35S]GTPγS binding assay using striatal membranes.
# Striatal tissue was homogenized in 10 volumes of ice cold 25 mM HEPES buffer, pH 7.4, which contained 1 mM EGTA, 100 mM sucrose, 50 μg/ml leupeptin, 0.04 mM PMSF, 2 μg/ml soybean trypsin inhibitor and 0.2% 2-mercaptoethanol. The homogenates were centrifuged at 800×g for 5 minutes and the supernatants were centrifuged at 49,000×g for 20 minutes. The resulting pellets were suspended in 10 volume of reaction buffer, which contained 25 mM HEPES, pH 7.5, 100 mM NaCl, 50 μg/ml leupeptin, 2 μg/ml soybean trypsin inhibitor, 0.04 mM PMSF and 0.02% […].
# The resultant striatal membrane preparation (200 μg) was admixed and maintained (incubated) at 30° C. for 5 minutes in reaction buffer as above that additionally contained 1 mM MgCl2 and 0.5 nM [^35S]GTPγS (0.1 μCi/assay, PerkinElmer Life and Analytical Sciences) in a total volume of 250 μl and continued for 5 minutes in the absence or presence of 0.1-10 μM of an assayed compound of interest. The reaction was terminated by dilution with 750 μl of ice-cold reaction buffer that contained 20 mM MgCl2 and 1 mM EGTA and immediate centrifugation at 16,000×g for 5 minutes.
# The resulting pellet was solubilized by sonicating for 10 seconds in 0.5 ml of immunoprecipitation buffer containing 0.5% digitonin, 0.2% sodium cholate and 0.5% NP-40. Normal rabbit serum (1 μl) was added to 1 ml of lysate and incubated at 25° C. for 30 minutes. Nonspecific immune complexes were removed by incubation with 25 μl of protein A/G-conjugated agarose beads at 25° C. for 30 minutes followed by centrifugation at 5,000×g at 4° C. for 5 minutes. The supernatant was divided and separately incubated at 25° C. for 30 minutes with antibodies raised against Gao proteins (1:1,000 dilutions).
# The immunocomplexes so formed were collected by incubation at 25° C. for 30 minutes with 40 μl of agarose-conjugated protein A/G beads and centrifugation at 5,000×g at 4° C. for 5 minutes. The pellet was washed and suspended in buffer containing 50 mM Tris-HCl, pH 8.0, and 1% NP-40. The radioactivity in the suspension was determined by liquid scintillation spectrometry. […] DAMGO (H-Tyr-D-Ala-Gly-N-MePhe-Gly-OH; 1 or 10 μM) was used as a positive control.
# T1 sequence (P33535 whole entry): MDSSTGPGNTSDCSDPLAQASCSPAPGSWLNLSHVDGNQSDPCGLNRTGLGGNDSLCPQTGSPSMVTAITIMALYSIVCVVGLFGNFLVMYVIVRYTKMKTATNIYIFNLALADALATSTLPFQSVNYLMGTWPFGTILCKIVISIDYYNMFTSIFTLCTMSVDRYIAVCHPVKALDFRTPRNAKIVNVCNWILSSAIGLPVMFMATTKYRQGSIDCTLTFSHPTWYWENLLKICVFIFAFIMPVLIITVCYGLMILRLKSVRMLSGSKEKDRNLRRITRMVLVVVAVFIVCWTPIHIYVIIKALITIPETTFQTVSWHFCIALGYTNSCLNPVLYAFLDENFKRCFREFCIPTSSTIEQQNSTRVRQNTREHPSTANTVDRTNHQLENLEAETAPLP
SMILES,"[35S]GTPγS binding to Gαo, FLNA-binding compound as agonist 0.1 μM [%]","[35S]GTPγS binding to Gαo, FLNA-binding compound as agonist 1 μM + BFNA [%]","[35S]GTPγS binding to Gαo, FLNA-binding compound as agonist 1 μM [%]",% DAMGO + BFNA (relative to DAMGO + BFNA) [%],"% DAMGO (0.1 μM) (relative to DAMGO, 0.1 μM) [%]","% DAMGO (1 μM) (relative to DAMGO, 1 μM) [%]"
OC(COc1cccc(C(F)(F)F)c1)CN1CCc2ccccc2C1 (stereo not drawn) [Compound A0054],74.9,114.1,159.2,,,
CC1CCC(C(C)C)C(OCC(O)Cn2ccc3ccccc32)C1 (stereo not drawn) [Compound A0078],250.5,147.8,289.9,,,
CC1CCC(C(C)C)C(OCC(O)CN2CCc3ccccc3C2)C1 (stereo not drawn) [Compound A0040],46.1,16.7,149.0,,,
CC(=O)c1ccc(OCC(O)CN2CC(C)OC(C)C2)cc1 (stereo not drawn) [Compound A0044],176.2,134.7,209.1,,,
Cc1cccc(OCC(O)CN2CC(C)OC(C)C2)c1 (stereo not drawn) [Compound A0030],133.4,165.2,287.8,,,
CC1CCC(C(C)C)C(OCC(O)CN2CCN(CCc3ccccc3)CC2)C1 (stereo not drawn) [Compound A0020],168.6,67.4,217.4,,,
CC1CCC(C(C)C)C(OCC(O)CN2CCCCCCC2)C1 (stereo not drawn) [Compound A0014],147.0,140.8,174.9,,,
CC1CCC(C)C(OCC(O)CN2CC(C)OC(C)C2)C1 (stereo not drawn) [Compound A0022],154.1,28.0,216.0,,,
CC1CCC(C(C)C)C(OCC(O)CN2CCOCC2)C1 (stereo not drawn) [Compound A0004],97.4,86.0,144.2,,,
CC1CCC(C(C)C)C(OCC(O)CN2CC(C)OC(C)C2)C1 (stereo not drawn) [Compound A0032-1],187.4,224.5,324.5,303.8,95.5,117.6
CC1CCC(C(C)C)C(OCC(O)CN2CCCC2)C1 (stereo not drawn) [Compound A0001],94.3,22.2,181.7,,,
CC1CCC(C(C)C)C(OCC(O)CN2CCSC2)C1 (stereo not drawn) [Compound A0002],155.6,6.5,199.4,,,
CC1CCC(C(C)C)C(OCC(O)CN2CCCCCC2)C1 (stereo not drawn) [Compound A0013],102.1,86.1,164.8,,,
